Data: ChEMBL document CHEMBL1201862, “PubChem BioAssay data set” (2004)
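Method: 48-hour compound exposure of cells in 96-well plates, five concentrations, linear interpolation of endpoints. At the GI50, growth is halved.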 Calls of active or inactive are those of the source. Rule as the data show it: active = GI50 up to about 1.1 µM and inactive = higher.

Columns and labels:
Assay in all cases: inhibition of tumour cell growth, NCI panel, 48 h
OVCAR-8 = test system: OVCAR-8
M14 = test system: M14
MOLT-4 = test system: MOLT-4
NCI-H460 = test system: NCI-H460
UACC-257 = test system: UACC-257
OVCAR-3 = test system: OVCAR-3
DU-145 = test system: DU-145
A498 = test system: A498
SF-268 = test system: SF-268
CCRF-CEM = test system: CCRF-CEM
CAKI-1 = test system: CAKI-1
NCI-H522 = test system: NCI-H522
OVCAR-5 = test system: OVCAR-5
EKVX = test system: EKVX
COLO 205 = test system: COLO 205
SNB-75 = test system: SNB-75
OVCAR-4 = test system: OVCAR-4
A549 = test system: A549
KM12 = test system: KM12
RPMI-8226 = test system: RPMI-8226
LOX IMVI = test system: LOX IMVI
HCT-116 = test system: HCT-116
NCI-H23 = test system: NCI-H23
NCI/ADR-RES = test system: NCI/ADR-RES
NCI-H226 = test system: NCI-H226
SF-539 = test system: SF-539
HOP-92 = test system: HOP-92
MDA-MB-231 = test system: MDA-MB-231
ACHN = test system: ACHN
Hs-578T = test system: Hs-578T
Malme-3M = test system: Malme-3M
PC-3 = test system: PC-3
SN12C = test system: SN12C
HL-60 = test system: HL-60
786-0 = test system: 786-0
U-251 = test system: U-251
SK-MEL-5 = test system: SK-MEL-5
SNB-19 = test system: SNB-19
SR = test system: SR
T47D = test system: T47D
UO-31 = test system: UO-31
RXF 393 = test system: RXF 393
TK-10 = test system: TK-10
MCF7 = test system: MCF7
SK-MEL-2 = test system: SK-MEL-2
MDA-MB-435 = test system: MDA-MB-435
IGROV-1 = test system: IGROV-1
HOP-62 = test system: HOP-62
SF-295 = test system: SF-295
K562 = test system: K562
SW-620 = test system: SW-620
HT-29 = test system: HT-29
BT-549 = test system: BT-549
SK-OV-3 = test system: SK-OV-3
HCT-15 = test system: HCT-15
UACC-62 = test system: UACC-62
MDA-N = test system: MDA-N
HCC 2998 = test system: HCC 2998
SK-MEL-28 = test system: SK-MEL-28

Cn1c2cn[nH]c(=O)c2c2ccc3ccccc3c21
GI50 (OVCAR-8): 41.6 µM (inactive) | GI50 (M14): > 100 µM (inactive) | GI50 (MOLT-4): 27.2 µM (inactive) | GI50 (NCI-H460): 20 µM (inactive) | GI50 (UACC-257): > 100 µM (inactive) | GI50 (OVCAR-3): > 100 µM (inactive) | GI50 (DU-145): 59.3 µM (inactive) | GI50 (A498): 9.04 µM (inactive) | GI50 (SF-268): 22.6 µM (inactive) | GI50 (CCRF-CEM): 59.2 µM (inactive) | GI50 (CAKI-1): 42.4 µM (inactive) | GI50 (NCI-H522): 16.9 µM (inactive) | GI50 (OVCAR-5): > 100 µM (inactive) | GI50 (EKVX): 3.6 µM (inactive) | GI50 (COLO 205): 23.9 µM (inactive) | GI50 (SNB-75): 16.1 µM (inactive) | GI50 (OVCAR-4): 58.1 µM (inactive) | GI50 (A549): 27.7 µM (inactive) | GI50 (KM12): > 100 µM (inactive) | GI50 (RPMI-8226): 60.3 µM (inactive) | GI50 (LOX IMVI): 21.9 µM (inactive) | GI50 (HCT-116): 29 µM (inactive) | GI50 (NCI-H23): 21.6 µM (inactive) | GI50 (NCI/ADR-RES): 84.1 µM (inactive) | GI50 (NCI-H226): 36.1 µM (inactive) | GI50 (SF-539): 48.4 µM (inactive) | GI50 (HOP-92): 10.6 µM (inactive) | GI50 (MDA-MB-231): 15.4 µM (inactive) | GI50 (ACHN): 16.9 µM (inactive) | GI50 (Hs-578T): 11.9 µM (inactive) | GI50 (Malme-3M): > 100 µM (inactive) | GI50 (PC-3): 51.2 µM (inactive) | GI50 (SN12C): 44.6 µM (inactive) | GI50 (HL-60): 85.5 µM (inactive) | GI50 (786-0): 7.62 µM (inactive) | GI50 (U-251): 19.9 µM (inactive) | GI50 (SK-MEL-5): 31.5 µM (inactive) | GI50 (SNB-19): 26.5 µM (inactive) | GI50 (SR): 35.9 µM (inactive) | GI50 (T47D): > 100 µM (inactive) | GI50 (UO-31): 16.1 µM (inactive) | GI50 (RXF 393): 19.3 µM (inactive) | GI50 (TK-10): 49.8 µM (inactive) | GI50 (MCF7): 30.2 µM (inactive) | GI50 (SK-MEL-2): 18.2 µM (inactive) | GI50 (MDA-MB-435): 69.7 µM (inactive) | GI50 (IGROV-1): 11.7 µM (inactive) | GI50 (HOP-62): 13.1 µM (inactive) | GI50 (SF-295): 18.9 µM (inactive) | GI50 (K562): 86.1 µM (inactive) | GI50 (SW-620): 52.6 µM (inactive) | GI50 (HT-29): 37.3 µM (inactive) | GI50 (BT-549): 42.9 µM (inactive) | GI50 (SK-OV-3): 28.8 µM (inactive) | GI50 (HCT-15): 23.9 µM | GI50 (UACC-62): 22.4 µM (inactive) | GI50 (MDA-N): > 100 µM (inactive)

O=C1c2ccccc2C(=O)N1CCCCNOCCCN1C(=O)c2ccccc2C1=O
GI50 (OVCAR-8): > 100 µM (inactive) | GI50 (M14): > 100 µM (inactive) | GI50 (MOLT-4): > 100 µM (inactive) | GI50 (NCI-H460): > 100 µM (inactive) | GI50 (UACC-257): > 100 µM (inactive) | GI50 (OVCAR-3): > 100 µM (inactive) | GI50 (DU-145): > 100 µM (inactive) | GI50 (A498): > 100 µM (inactive) | GI50 (HCC 2998): > 100 µM (inactive) | GI50 (SF-268): > 100 µM (inactive) | GI50 (CCRF-CEM): > 100 µM (inactive) | GI50 (CAKI-1): > 100 µM (inactive) | GI50 (NCI-H522): > 100 µM (inactive) | GI50 (OVCAR-5): > 100 µM (inactive) | GI50 (EKVX): > 100 µM (inactive) | GI50 (COLO 205): > 100 µM (inactive) | GI50 (SNB-75): > 100 µM (inactive) | GI50 (OVCAR-4): > 100 µM (inactive) | GI50 (A549): > 100 µM (inactive) | GI50 (KM12): > 100 µM (inactive) | GI50 (RPMI-8226): > 100 µM (inactive) | GI50 (LOX IMVI): > 100 µM (inactive) | GI50 (HCT-116): > 100 µM (inactive) | GI50 (NCI-H23): > 100 µM (inactive) | GI50 (NCI/ADR-RES): > 100 µM (inactive) | GI50 (NCI-H226): > 100 µM (inactive) | GI50 (HOP-92): > 100 µM (inactive) | GI50 (MDA-MB-231): > 100 µM (inactive) | GI50 (ACHN): > 100 µM (inactive) | GI50 (Hs-578T): > 100 µM (inactive) | GI50 (Malme-3M): > 100 µM (inactive) | GI50 (PC-3): > 100 µM (inactive) | GI50 (SN12C): > 100 µM (inactive) | GI50 (786-0): > 100 µM (inactive) | GI50 (U-251): > 100 µM (inactive) | GI50 (SK-MEL-5): > 100 µM (inactive) | GI50 (SNB-19): > 100 µM (inactive) | GI50 (SR): > 100 µM (inactive) | GI50 (T47D): > 100 µM (inactive) | GI50 (UO-31): > 100 µM (inactive) | GI50 (RXF 393): > 100 µM (inactive) | GI50 (TK-10): > 100 µM (inactive) | GI50 (MCF7): > 100 µM (inactive) | GI50 (MDA-MB-435): > 100 µM (inactive) | GI50 (IGROV-1): > 100 µM (inactive) | GI50 (HOP-62): > 100 µM (inactive) | GI50 (SF-295): > 100 µM (inactive) | GI50 (K562): > 100 µM (inactive) | GI50 (SW-620): > 100 µM (inactive) | GI50 (HT-29): > 100 µM (inactive) | GI50 (BT-549): > 100 µM (inactive) | GI50 (SK-OV-3): > 100 µM (inactive) | GI50 (SK-MEL-28): > 100 µM (inactive) | GI50 (HCT-15): > 100 µM | GI50 (UACC-62): > 100 µM (inactive) | GI50 (MDA-N): > 100 µM (inactive)

N=C(N)N/N=C/c1c(-c2ccc(Cl)cc2)nc2sccn12
GI50 (OVCAR-8): 1.95 µM (inactive) | GI50 (M14): 1.63 µM (inactive) | GI50 (MOLT-4): 2 µM (inactive) | GI50 (NCI-H460): 1.76 µM (inactive) | GI50 (UACC-257): 1.95 µM (inactive) | GI50 (OVCAR-3): 1.6 µM (inactive) | GI50 (DU-145): 3.34 µM (inactive) | GI50 (A498): 3.11 µM (inactive) | GI50 (HCC 2998): 1.35 µM (inactive) | GI50 (SF-268): 1.8 µM (inactive) | GI50 (CCRF-CEM): 1.79 µM (inactive) | GI50 (CAKI-1): 3.21 µM (inactive) | GI50 (NCI-H522): 1.56 µM (inactive) | GI50 (OVCAR-5): 2.3 µM (inactive) | GI50 (EKVX): 14.6 µM (inactive) | GI50 (COLO 205): 1.46 µM (inactive) | GI50 (SNB-75): 1.77 µM (inactive) | GI50 (OVCAR-4): 2.06 µM (inactive) | GI50 (A549): 1.64 µM (inactive) | GI50 (KM12): 1.96 µM (inactive) | GI50 (RPMI-8226): 2.61 µM (inactive) | GI50 (LOX IMVI): 1.65 µM (inactive) | GI50 (HCT-116): 1.6 µM (inactive) | GI50 (NCI-H23): 4.43 µM (inactive) | GI50 (NCI/ADR-RES): 5.4 µM (inactive) | GI50 (NCI-H226): 2.21 µM (inactive) | GI50 (SF-539): 1.83 µM (inactive) | GI50 (HOP-92): 2.1 µM (inactive) | GI50 (MDA-MB-231): 2.77 µM (inactive) | GI50 (ACHN): 1.5 µM (inactive) | GI50 (Hs-578T): 4.97 µM (inactive) | GI50 (Malme-3M): 2.71 µM (inactive) | GI50 (PC-3): 1.62 µM (inactive) | GI50 (SN12C): 1.95 µM (inactive) | GI50 (786-0): 1.61 µM (inactive) | GI50 (U-251): 1.86 µM (inactive) | GI50 (SK-MEL-5): 1.65 µM (inactive) | GI50 (SNB-19): 4.09 µM (inactive) | GI50 (SR): 3.46 µM (inactive) | GI50 (T47D): 1.33 µM (inactive) | GI50 (UO-31): 2.48 µM (inactive) | GI50 (RXF 393): 1.35 µM (inactive) | GI50 (TK-10): 3.01 µM (inactive) | GI50 (MCF7): 1.72 µM (inactive) | GI50 (SK-MEL-2): 1.95 µM (inactive) | GI50 (MDA-MB-435): 1.74 µM (inactive) | GI50 (IGROV-1): 1.85 µM (inactive) | GI50 (HOP-62): 1.79 µM (inactive) | GI50 (SF-295): 1.64 µM (inactive) | GI50 (K562): 2.18 µM (inactive) | GI50 (SW-620): 1.55 µM (inactive) | GI50 (HT-29): 1.69 µM (inactive) | GI50 (BT-549): 3.01 µM (inactive) | GI50 (SK-OV-3): 2.66 µM (inactive) | GI50 (SK-MEL-28): 1.85 µM (inactive) | GI50 (HCT-15): 2.54 µM | GI50 (UACC-62): 1.69 µM (inactive) | GI50 (MDA-N): 1.79 µM (inactive)
